Results published in ChEMBL document CHEMBL1152479, “Synthesis and in vitro antitumor activities of novel 4-anilinoquinazoline derivatives” (Eur J Med Chem, 2009).
pIC50: −log10 of the molar value.

test system: MCF-7 (human); assay: cells; conditions: MCF-7, 72 h

| pIC50 | SMILES |
| --- | --- |
| 4.49 | CCCCc1nc(Cl)c(C=O)n1CCCOc1cc2c(Nc3cccc(I)c3)ncnc2cc1OC |
| 4.41 | CCCCc1nc(Cl)c(C=O)n1CCCOc1cc2c(Nc3cccc(C(F)(F)F)c3)ncnc2cc1OC |

More lines, now with the values behind:

| SMILES | pIC50 |
| --- | --- |
| COc1cc2ncnc(Nc3ccc(F)c(Cl)c3)c2cc1OCCCSc1nc2ccccc2o1 | 4.43 |
| COc1cc2ncnc(Nc3cccc(C(F)(F)F)c3)c2cc1OCCCSc1nc2ccccc2o1 | 4.43 |
| COc1cc2ncnc(Nc3cccc(C(F)(F)F)c3)c2cc1OCCCSc1nc2ccccc2s1 | 4.44 |

test system: A431 (human); assay: cells; conditions: A431, 72 h

| pIC50 | SMILES |
| --- | --- |
| 5.19 | CCCCc1nc(Cl)c(C=O)n1CCCOc1cc2c(Nc3cccc(Br)c3)ncnc2cc1OC |
| 4.85 | COc1cc2ncnc(Nc3ccc(C)cc3)c2cc1OCCCSc1nc2ccccc2s1 |
| 4.76 | CCc1cc(Br)ccc1Nc1ncnc2cc(OC)c(OCCCSc3nc4ccccc4o3)cc12 |
| 5.23 | CCc1cc(Br)ccc1Nc1ncnc2cc(OC)c(OCCCSc3nc4ccccc4s3)cc12 |
| 4.75 | CCCCc1nc(Cl)c(CO)n1CCCOc1cc2c(Nc3cccc(F)c3)ncnc2cc1OC |
| 4.85 | CCCCc1nc(Cl)c(C=O)n1CCCOc1cc2c(Nc3ccc(OC)cc3)ncnc2cc1OC |
| 5.52 | CCCCc1nc(Cl)c(C=O)n1CCCOc1cc2c(Nc3cccc(I)c3)ncnc2cc1OC |
| 5.00 | C#Cc1cccc(Nc2ncnc3cc(OC)c(OCCCn4c(CCCC)nc(Cl)c4CO)cc23)c1 |
| 5.08 | CCCCc1nc(Cl)c(CO)n1CCCOc1cc2c(Nc3cccc(C(F)(F)F)c3)ncnc2cc1OC |
| 5.00 | C#Cc1cccc(Nc2ncnc3cc(OC)c(OCCCn4c(CCCC)nc(Cl)c4C=O)cc23)c1 |
| 5.04 | COc1cc2ncnc(Nc3ccc(OC(F)(F)F)cc3)c2cc1OCCCSc1nc2ccccc2o1 |
| 5.45 | CCCCc1nc(Cl)c(C=O)n1CCCOc1cc2c(Nc3cccc(C(F)(F)F)c3)ncnc2cc1OC |
| 4.98 | CCCCc1nc(Cl)c(CO)n1CCCOc1cc2c(Nc3ccc(Br)cc3CC)ncnc2cc1OC |
| 5.30 | CCCCc1nc(Cl)c(C=O)n1CCCOc1cc2c(Nc3ccc(F)c(Cl)c3)ncnc2cc1OC |

The next lines start with the compound.

| SMILES | pIC50 |
| --- | --- |
| CCCCc1nc(Cl)c(C=O)n1CCCOc1cc2c(Nc3ccc(Br)cc3CC)ncnc2cc1OC | 5.18 |
| CCCCc1nc(Cl)c(CO)n1CCCOc1cc2c(Nc3cccc(Br)c3)ncnc2cc1OC | 5.09 |
| CCCCc1nc(Cl)c(CO)n1CCCOc1cc2c(Nc3ccc(F)c(Cl)c3)ncnc2cc1OC | 5.22 |
| COc1cc2ncnc(Nc3ccc(F)c(Cl)c3)c2cc1OCCCSc1nc2ccccc2o1 | 5.39 |
| COc1cc2ncnc(Nc3cccc(C(F)(F)F)c3)c2cc1OCCCSc1nc2ccccc2o1 | 5.39 |
| COc1cc2ncnc(Nc3ccc(C)cc3)c2cc1OCCCSc1nc2ccccc2o1 | 4.92 |
| CCCCc1nc(Cl)c(CO)n1CCCOc1cc2c(Nc3ccc(OC)cc3)ncnc2cc1OC | 4.70 |
| CCCCc1nc(Cl)c(C=O)n1CCCOc1cc2c(Nc3cccc(F)c3)ncnc2cc1OC | 4.92 |
| COc1cc2ncnc(Nc3cccc(C(F)(F)F)c3)c2cc1OCCCSc1nc2ccccc2s1 | 5.39 |
| COc1ccc(Nc2ncnc3cc(OC)c(OCCCSc4nc5ccccc5o4)cc23)cc1 | 4.88 |
| CCCCc1nc(Cl)c(CO)n1CCCOc1cc2c(Nc3cccc(I)c3)ncnc2cc1OC | 5.00 |
| COc1ccc(Nc2ncnc3cc(OC)c(OCCCSc4nc5ccccc5s4)cc23)cc1 | 4.85 |
| COc1cc2ncnc(Nc3ccc(F)c(Cl)c3)c2cc1OCCCSc1nc2ccccc2s1 | 5.27 |
